Data reported in patent publication US5985261A, “Use of thioredoxin-like molecules for induction of MnSOD to treat oxidative damage” (National Jewish Medical and Research Center, priority 1997, dated 1999).
Starred links: 1 amine or outer side, 2 acyl side, 3 side chain; linkers in the order of their positions; H or OH if unused. Positions of bridges follow the written chain, without caps; N, C: chain ends. Non-standard residues stand in square brackets, D forms with d. Residues, ends and D or L forms follow the SMILES beside them. Chains are numbered I, II in the order given. Actinocin(9to1) = Cc1c2oc3c(C)ccc(C(=O)[*:1])c3nc-2c(C(=O)[*:2])c(N)c1=O; NMeV = CN[C@H](C(=O)O)C(C)C; Sar = CNCC(=O)O

Tested on: MnSOD mRNA in A549 cells
Assay: Effect on MnSOD mRNA induction by thioredoxin in A549 cells (Northern blot)
Type: cell-based, human
Procedure: Reduced thioredoxin (recombinant, E. coli; Promega) was prepared by treating 1 mM thioredoxin with 2 mM dithiothreitol (DTT) for 20 min at room temperature followed by removal of excess DTT using a G-25 spin column. A549 cells were grown in F-12K medium with 10% serum. Confluent monolayers were treated with oxidized thioredoxin (3 or 7 μM), with and without the thioredoxin reducing system [thioredoxin reductase (0.1 μM)+NADPH (2 mM)]. Incubations were for 16 hours. Total RNA was isolated from cells by guanidine isothiocyanate lysis and cesium chloride centrifugation of the lysate (147,000× g, 20-25° C.) in an ultracentrifuge (Beckman) by the methods of Sambrook et al., ibid. Total RNA was quantified spectrophotometrically.
Twenty micrograms of RNA was resolved by electrophoresis in 1% agarose, 2.5 M formaldehyde gel in a buffer containing 20 mM MOPS and 1 mM EDTA (pH 7.4). RNA was transferred to nitrocellulose and blots were prehybridized 2-12 hours in 50% formamide, 0.75 M sodium chloride, 0.075 M sodium citrate (pH 7.0), 5× Denhardt's solution, 50 μg/ml salmon sperm DNA, and 0.1% SDS at 42° C. Blots were hybridized with cDNA for MnSOD labeled to a specific activity of 2-7×10^7 cpm using ^32 P-γ CTP (ICN) in hybridization solution at 42° C. overnight and then were washed in 0.3 M sodium chloride, 0.03 M sodium citrate, 0.1% SDS at 42° C. Autoradiographs were made by exposing blots to x-ray film (Kodak) at -70° C. with intensifying screens. Blots were exposed to phosphor-imager screens (Molecular Dynamics) and densitometry was performed with a Macintosh computer using MD Image Quant Version 3.35.
To evaluate the effect of oxidation of TRX-SH2 on MnSOD induction, A549 cells were incubated with diamide (2 mM; 30 min) or CDNB (100 μM; 45 min). After incubation, cells were washed and fresh medium added. The cells next were incubated with oxidized thioredoxin (28 μM; 6 h) and then processed for Northern analysis as described in Example 2.
A549 cells were incubated with actinomycin D ([…]), a transcriptional inhibitor, or cyclohexamide (10 μg/ml), a translation inhibitor, for 1 hour followed by addition of thioredoxin (28 μM) and further incubation for a period of 16 hours. mRNA was quantified as previously described.

## O=[N+]([O-])c1ccc(Cl)c([N+](=O)[O-])c1 [CDNB]
CDNB 100 μM, 45 min, washed, then oxidized thioredoxin 28 μM, 6 h
  effect on increased expression of MnSOD mRNA by thioredoxin: prevented increased expression of MnSOD mRNA by thioredoxin

## C[C@@H]1C[C@@H]([C@H](O)CC2CC(=O)NC(=O)C2)C(=O)[C@@H](C)C1 [Cycloheximide, cycloheximide]
Cyclohexamide 10 μg/ml, 1 hour, then thioredoxin 28 μM, 16 hours
  effect on thioredoxin-mediated increase in MnSOD mRNA: potentiated the thioredoxin-mediated increase in MnSOD mRNA

## Cc1c2oc3c(C)ccc(C(=O)N[C@@H]4C(=O)N[C@H](C(C)C)C(=O)N5CCC[C@H]5C(=O)N(C)CC(=O)N(C)[C@@H](C(C)C)C(=O)O[C@@H]4C)c3nc-2c(C(=O)N[C@@H]2C(=O)N[C@H](C(C)C)C(=O)N3CCC[C@H]3C(=O)N(C)CC(=O)N(C)[C@@H](C(C)C)C(=O)O[C@@H]2C)c(N)c1=O [actinomycin D] (I: T[dV]P[Sar][NMeV] / II: T[dV]P[Sar][NMeV]; ester I:1-I:C, II:1-II:C; linker I:N-II:N via Actinocin(9to1))
Actinomycin D, 1 hour, then thioredoxin 28 μM, 16 hours
  effect on production of MnSOD mRNA: inhibited

## CN(C)C(=O)/N=N/C(=O)N(C)C [diamide]
Diamide 2 mM, 30 min, washed, then oxidized thioredoxin 28 μM, 6 h
  effect on elevation of MnSOD mRNA by thioredoxin: prevented elevation of MnSOD mRNA by thioredoxin
